Results: ChEMBL document CHEMBL5137127, “Astramalabaricosides A-T, Highly Oxygenated Malabaricane Triterpenoids with Migratory Inhibitory Activity from Astragalus membranaceus var. mongholicus” (J Nat Prod, 2022)
The source made the active and inactive calls. The rule behind the calls is not given here.

Tested on: HepG2
Test: Antimigratory activity against human HepG2 cells assessed as inhibition of cell migration at 100 uM measured upto 24 hrs by inverted microscopy based scratch wound healing assay
Format: functional

Structure (SMILES)	Activity
CC(=O)N[C@H]1[C@H](O[C@H]2[C@H](O[C@H]3[C@H](O[C@H]4CC[C@]5(C)[C@H]6C[C@@H](O)[C@@H]([C@](C)(O)CC/C=C(\C)C[C@H](O)[C@@H](O)[C@@](C)(O)CO)[C@]6(C)CC[C@H]5C4(C)C)O[C@H](CO[C@@H]4OC[C@@H](O)[C@H](O)[C@H]4O)[C@@H](O)[C@@H]3O)O[C@@H](C)[C@H](O)[C@H]2O)O[C@H](CO)[C@@H](O)[C@@H]1O[C@@H]1OC[C@H](O)[C@H](O)[C@H]1O	Active
CC(=O)N[C@H]1[C@H](O[C@H]2[C@H](O[C@H]3[C@H](O[C@H]4CC[C@]5(C)[C@H]6C[C@@H](O)[C@@H]([C@](C)(O)CC/C=C(\C)C[C@H](O)[C@@H](O)[C@@](C)(O)CO)[C@]6(C)CC[C@H]5C4(C)C)O[C@H](CO[C@@H]4OC[C@@H](O)[C@H](O)[C@H]4O)[C@@H](O)[C@@H]3O)O[C@@H](C)[C@H](O)[C@H]2O)O[C@H](CO)[C@@H](O)[C@@H]1O	Active
C/C(=C\CC[C@@](C)(O)[C@@H]1[C@H](O)C[C@H]2[C@@]1(C)CC[C@H]1C(C)(C)[C@@H](O[C@@H]3O[C@H](CO[C@@H]4OC[C@@H](O)[C@H](O)[C@H]4O)[C@@H](O)[C@H](O)[C@H]3O[C@@H]3O[C@@H](C)[C@H](O)[C@@H](O)[C@H]3O)CC[C@]21C)C[C@@H]1OC(=O)O[C@H]1[C@](C)(O)CO[C@@H]1O[C@H](CO)[C@@H](O)[C@H](O)[C@H]1O	Active
CC(=O)N[C@H]1[C@H](O[C@H]2[C@H](O[C@H]3[C@H](O[C@H]4CC[C@]5(C)[C@H]6C[C@@H](O)[C@@H]([C@](C)(O)CC/C=C(\C)C[C@H](O)[C@H](O)C(C)(C)O)[C@]6(C)CC[C@H]5C4(C)C)O[C@H](CO[C@@H]4OC[C@@H](O)[C@H](O)[C@H]4O)[C@@H](O)[C@@H]3O)O[C@@H](C)[C@H](O)[C@H]2O)O[C@H](CO)[C@@H](O)[C@@H]1O	Active
CC(=O)N[C@H]1[C@H](O[C@H]2[C@H](O[C@H]3[C@H](O[C@H]4CC[C@]5(C)[C@H]6C[C@@H](O)[C@@H]([C@](C)(O)CC/C=C(\C)C[C@@H]7OC(=O)O[C@H]7[C@](C)(O)CO)[C@]6(C)CC[C@H]5C4(C)C)O[C@H](CO[C@@H]4OC[C@@H](O)[C@H](O)[C@H]4O)[C@@H](O)[C@@H]3O)O[C@@H](C)[C@H](O)[C@H]2O)O[C@H](CO)[C@@H](O)[C@@H]1O[C@@H]1OC[C@H](O)[C@H](O)[C@H]1O	Active
CC(=O)N[C@H]1[C@H](O[C@H]2[C@H](O[C@H]3[C@H](O[C@H]4CC[C@]5(C)[C@H]6C[C@@H](O)[C@@H]([C@](C)(O)CC/C=C(\C)C[C@@H]7OC(=O)O[C@H]7[C@](C)(O)CO[C@@H]7O[C@H](CO)[C@@H](O)[C@H](O)[C@H]7O)[C@]6(C)CC[C@H]5C4(C)C)O[C@H](CO[C@@H]4OC[C@@H](O)[C@H](O)[C@H]4O)[C@@H](O)[C@@H]3O)O[C@@H](C)[C@H](O)[C@H]2O)O[C@H](CO)[C@@H](O)[C@@H]1O	Active
CC(=O)N[C@H]1[C@H](O[C@H]2[C@H](O[C@H]3[C@H](O[C@H]4CC[C@]5(C)[C@H]6C[C@@H](O)[C@@H]([C@](C)(O)CC/C=C(\C)C[C@H](O)[C@@H](O)[C@@](C)(O)CO[C@@H]7O[C@H](CO)[C@@H](O)[C@H](O)[C@H]7O)[C@]6(C)CC[C@H]5C4(C)C)O[C@H](CO[C@@H]4OC[C@@H](O)[C@H](O)[C@H]4O)[C@@H](O)[C@@H]3O)O[C@@H](C)[C@H](O)[C@H]2O)O[C@H](CO)[C@@H](O)[C@@H]1O	Active
CC(=O)N[C@H]1[C@H](O[C@H]2[C@H](O[C@H]3[C@H](O[C@H]4CC[C@]5(C)[C@H]6C[C@@H](O)[C@@H]([C@](C)(O)CC/C=C(\C)C[C@H](O)[C@H](O)C(C)(C)O)[C@]6(C)CC[C@H]5C4(C)C)O[C@H](CO[C@@H]4OC[C@@H](O)[C@H](O)[C@H]4O)[C@@H](O)[C@@H]3O)O[C@@H](C)[C@H](O)[C@H]2O)O[C@H](CO)[C@@H](O)[C@@H]1O[C@@H]1OC[C@H](O)[C@H](O)[C@H]1O	Active
CC(=O)N[C@H]1[C@H](O[C@H]2[C@H](O[C@H]3[C@H](O[C@H]4CC[C@]5(C)[C@H]6C[C@@H](O)[C@@H]([C@](C)(O)CC/C=C(\C)C[C@@H]7OC(=O)O[C@H]7[C@](C)(O)CO)[C@]6(C)CC[C@H]5C4(C)C)O[C@H](CO[C@@H]4OC[C@@H](O)[C@H](O)[C@H]4O)[C@@H](O)[C@@H]3O)O[C@@H](C)[C@H](O)[C@H]2O)O[C@H](CO)[C@@H](O)[C@@H]1O	Active
CC(=O)N[C@H]1[C@H](O[C@H]2[C@H](O[C@H]3[C@H](O[C@H]4CC[C@]5(C)[C@H]6C[C@@H](O)[C@@H]([C@](C)(O)CC/C=C(\C)C[C@@H]7OC(=O)O[C@H]7[C@](C)(O)CO)[C@]6(C)CC[C@H]5C4(C)C)O[C@H](CO[C@@H]4OC[C@@H](O)[C@H](O)[C@H]4O)[C@@H](OC(C)=O)[C@@H]3O)O[C@@H](C)[C@H](O)[C@H]2O)O[C@H](CO)[C@@H](O)[C@@H]1O	Active
C/C(=C\CC[C@@](C)(O)[C@@H]1[C@H](O)C[C@H]2[C@@]1(C)CC[C@H]1C(C)(C)[C@@H](O[C@@H]3O[C@H](CO[C@@H]4OC[C@@H](O)[C@H](O)[C@H]4O)[C@@H](O)[C@H](O)[C@H]3O[C@@H]3O[C@@H](C)[C@H](O)[C@@H](O)[C@H]3O)CC[C@]21C)C[C@@H]1OC(=O)O[C@H]1[C@](C)(O)CO	Active
C/C(=C\CC[C@@](C)(O)[C@@H]1[C@H](O)C[C@H]2[C@@]1(C)CC[C@H]1C(C)(C)[C@@H](O[C@@H]3O[C@H](CO[C@@H]4OC[C@@H](O)[C@H](O)[C@H]4O)[C@@H](O)[C@H](O)[C@H]3O[C@@H]3O[C@@H](C)[C@H](O)[C@@H](O)[C@H]3O)CC[C@]21C)C[C@H](O)[C@@H](O)[C@@](C)(O)CO	Active
C/C(=C\CC[C@@](C)(O)[C@@H]1[C@H](O)C[C@H]2[C@@]1(C)CC[C@H]1C(C)(C)[C@@H](O[C@@H]3O[C@H](CO[C@@H]4OC[C@@H](O)[C@H](O)[C@H]4O)[C@@H](O)[C@H](O)[C@H]3O[C@@H]3O[C@@H](C)[C@H](O)[C@@H](O)[C@H]3O)CC[C@]21C)C[C@H](O)[C@@H](O)[C@@](C)(O)CO[C@@H]1O[C@H](CO)[C@@H](O)[C@H](O)[C@H]1O	Active
CC(=O)N[C@H]1[C@H](O[C@H]2[C@H](O[C@H]3[C@H](O[C@H]4CC[C@]5(C)[C@H]6C[C@@H](O)[C@@H]([C@](C)(O)CC/C=C(\C)C[C@@H]7OC(=O)O[C@H]7[C@](C)(O)CO)[C@]6(C)CC[C@H]5C4(C)C)O[C@H](CO[C@@H]4OC[C@@H](O)[C@H](O)[C@H]4O)[C@@H](O)[C@@H]3OC(C)=O)O[C@@H](C)[C@H](O)[C@H]2O)O[C@H](CO)[C@@H](O)[C@@H]1O	Active
CC(=O)N[C@H]1[C@H](O[C@H]2[C@H](O[C@H]3[C@H](O[C@H]4CC[C@]5(C)[C@H]6C[C@@H](O)[C@@H]([C@](C)(O)CC/C=C(\C)C[C@H](O)[C@H](O)C(C)(C)O)[C@]6(C)CC[C@H]5C4(C)C)O[C@H](CO)[C@@H](O)[C@@H]3O)O[C@@H](C)[C@H](O)[C@H]2O)O[C@H](CO)[C@@H](O)[C@@H]1O	Active
CC(=O)N[C@H]1[C@H](O[C@H]2[C@H](O[C@H]3[C@H](O[C@H]4CC[C@]5(C)[C@H]6C[C@@H](O)[C@@H]([C@](C)(O)CC/C=C(\C)C[C@@H]7OC(=O)O[C@H]7C(C)(C)O)[C@]6(C)CC[C@H]5C4(C)C)O[C@H](CO[C@@H]4OC[C@@H](O)[C@H](O)[C@H]4O)[C@@H](O)[C@@H]3O)O[C@@H](C)[C@H](O)[C@H]2O)O[C@H](CO)[C@@H](O)[C@@H]1O	Active
